pIC50: −log10 of the molar value. Like-named read-outs stand apart in the source and are kept apart here.
What was measured:
CCRF-CEM cell line = test: in vitro growth inhibition of CCRF-CEM cell line in culture (Foley and Lazarus procedure); format: cell-based, child; settings: Homo sapiens, read-out: ID50 (dose required to inhibit growth of the cultures by 50% relative to control cultures)
Method: (§1) The toxicity and therapeutic effectiveness of the new compounds and active agents of the present invention are shown by in vitro assays and by in vivo evaluations in mice. The in vitro assays measure the growth inhibiting activity of the materials against the CCRF-CEM cell line in culture. The cell line was derived from the peripheral blood and a child with lymphoblastic leukemia as described by Foley et al., Cancer, Volume 18, page 522 et seq. (1965), and the assays were carried out by the procedure of Foley and Lazarus, Biochem. Pharmacol., Volume 16, pages 659 et seq. (1967), the results being reported in terms of the dose in micromoles per liter required to inhibit growth of the cultures by 50% relative to control cultures to which no drug had been added (ID50). The in vivo evaluations were made by preparing a 0.2 to 0.7% by weight solution of the active agent in a 10% by volume aqueous solution of polyoxyethylene sorbitan monooleate (polysorbate 80) as a carrier and injecting the dosage intraperitoneally. The evaluations were made of the antitumor activity against the murine P 388 and murine L 1210 leukemias in BDF1 male mice according to standard National Cancer Institute protocols as set forth by Geran et al., Cancer Chemotherap. Rep., Part 3, Volume 3, pages 1 et seq. (1972), except that a qd 1-4 schedule was used in place of qd 1-9 in order to conserve materials. Evaluations were also made of the antitumor activity against the Ridgway osteogenic sarcoma, a solid tumor, in AKD2 /F1 mice, according to the procedures described in the report by G. J. D'Angio, C. L. Maddock, S. Farber, and B. L. Brown, Cancer Research, 25, 1002-1007 (1965).
The following table summarizes the inhibitory activity of various N-trifluoroacetyladriamycin-14-alkanoates as well as other materials when tested in vitro as described in the paragraphs preceding Example 1 above.

murine P 388 leukemia = test: in vivo antitumor activity against murine P 388 leukemia (Geran et al. procedure); parameters: species or system BDF1 male mice; settings: Table II, i.p., qd 1-4; for Survivors 60da: optimal dose mg/kg: acetate 40, isobutyrate 40, valerate 40, caproate 60, caprylate 60; for MILS (Median Increase in Life Span Compared with Untreated Mice) / Survivors 30da: optimal dose mg/kg: adriamycin 4.0, daunomycin 2.0, acetate 40, isobutyrate 40, valerate 40, caproate 60, caprylate 60
Method: as §1
(§2) Optimal dosage was determined by testing doses which were at several multiples of 10 milligrams/kilogram of body weight and the optimal dose was used for further tests. Some effectiveness can be observed at dosages ranging from 20 to 70 milligrams/kilogram of body weight, depending upon the particular ester employed.
The following table summarizes the in vivo antitumor activity against murine P 388 leukemia tested by the Geran et al. procedure as exampled above: […]

murine L 1210 leukemia [1] = test: in vivo antitumor activity against murine L 1210 leukemia (Geran et al. procedure); parameters: species or system BDF1 male mice; settings: for MILS / Survivors 30da / Survivors 60da: Table III, qd 1-4
Method: as §1, §2
The murine L 1210 leukemia is generally poorly responsive to chemotherapy. […] The following table summarizes the results of three separate in vivo tests of N-trifluoroacetyladriamycin-14-valerate against murine L 1210 leukemia following the Geran et al. procedure as described above: […]

[2] = toxicity in mice in the in vivo antitumor tests; settings: mouse, in vivo, ip; L1210 test, qd 1-4 schedule; read-out: doses above which toxicity displayed
Method: as §1, §2

malignant tumors = settings: cited from earlier work; for clinical effectiveness: certain malignant tumors, e.g. induction of remission in acute leukemia
mice = test: toxicity in mice in the in vivo antitumor tests; settings: P 388 test conditions, qd 1-4; for toxicity: dose of 60 mg/kg i.p.
Method: as §1, §2

murine L 1210 leukemia [3] = settings: background statement; cited from earlier work
[4] = system: murine Ridgway osteogenic sarcoma; test: in vivo antitumor activity against murine Ridgway osteogenic sarcoma (D'Angio et al. procedure); parameters: species or system AKD2 /F1 mice; settings: for MILS / Median Survival: Table IV, days 16-19
Method: as §1
The following table summarizes the in vivo antitumor activity of N-trifluoroacetyladriamycin-14-valerate against the murine Ridgway osteogenic sarcoma following the D'Angio et at. procedure as described above:
*Therapy was started on day 16 when the intramuscularly implanted tumor was palpable. Seven mice were used in each group, and all compounds were administered intraperitoneally.
Complete remission in this system is defined as the absence of palpable tumor.

[5] = L1210 leukemia, same conditions as Table III
[6] = Ridgway tumor, complete remission = absence of palpable tumor

Structure (SMILES): CCC(=O)OCC(=O)[C@]1(O)Cc2c(O)c3c(c(O)c2[C@@H](O[C@H]2C[C@H](NC(=O)C(F)(F)F)[C@H](O)[C@H](C)O2)C1)C(=O)c1c(OC)cccc1C3=O [Propionate, N-Trifluoroacetyladriamycin-14-propionate]
- pIC50 (CCRF-CEM cell line; CCRF-CEM cells, Table I): 6.52

Structure (SMILES): COc1cccc2c1C(=O)c1c(O)c3c(c(O)c1C2=O)C[C@@](O)(C(=O)COC(=O)C(C)C)C[C@@H]3O[C@H]1C[C@H](NC(=O)C(F)(F)F)[C@H](O)[C@H](C)O1 [Isobutyrate, N-Trifluoroacetyladriamycin-14-isobutyrate]
- pIC50 (CCRF-CEM cell line; CCRF-CEM cells, Table I): 6.55
- Survivors 60da (murine P 388 leukemia): 1/5
- MILS (Median Increase in Life Span Compared with Untreated Mice) (murine P 388 leukemia): 150%
- Survivors 30da (murine P 388 leukemia): 3/5

Structure (SMILES): CCCCC(=O)OCC(=O)[C@]1(O)Cc2c(O)c3c(c(O)c2[C@@H](O[C@H]2C[C@H](N)[C@H](O)[C@H](C)O2)C1)C(=O)c1c(OC)cccc1C3=O [adriamycin-14-valerate, reference compound]
- effectiveness in prolonging survival of tumor-bearing mice compared with daunomycin (murine L 1210 leukemia [1]; [5]): no more effective than daunomycin
- survivors after 30 days (murine L 1210 leukemia [1]; [5]): no survivors after 30 days
- MTD [2]: > 4 mg/kg

Structure (SMILES): COc1cccc2c1C(=O)c1c(O)c3c(c(O)c1C2=O)C[C@@](O)(C(=O)CO)C[C@@H]3O[C@H]1C[C@H](N)[C@H](O)[C@H](C)O1 [Adriamycin]
- pIC50 (CCRF-CEM cell line; CCRF-CEM): 7.18
- clinical effectiveness (malignant tumors): effective clinically against certain malignant tumors
- toxicities in chemotherapy (malignant tumors; limiting long-term use): a variety of toxicities which limit the effectiveness of the compounds
- clinical efficacy against certain solid tumors (malignant tumors; solid tumors): has shown clinical efficacy against certain solid tumors
- MILS (murine L 1210 leukemia [1]; first test, 4.0 mg/kg i.p.): 45%
- Survivors 30da (murine L 1210 leukemia [1]; first test, 4.0 mg/kg i.p.): 0/5
- MILS (murine L 1210 leukemia [1]; second test, 4.0 mg/kg i.p.): 54%
- Survivors 30da (murine L 1210 leukemia [1]; second test, 4.0 mg/kg i.p.): 1/5
- Survivors 60da (murine L 1210 leukemia [1]; second test, 4.0 mg/kg i.p.): 0/5
- MILS (murine L 1210 leukemia [1]; third test, 4.0 mg/kg i.p.): 42%
- Survivors 30da (murine L 1210 leukemia [1]; third test, 4.0 mg/kg i.p.): 0/7
- dose at and above which toxic (mice; i.p.): ≥ 4 mg/kg
- effectiveness in prolonging survival of mice bearing L 1210 leukemia (general statement) (murine L 1210 leukemia [3]): only moderately effective
- MILS (Median Increase in Life Span Compared with Untreated Mice) (murine P 388 leukemia): 132%
- Survivors 30da (murine P 388 leukemia): 0/6
- MILS ([4]; 3.0 mg/kg i.p.): 40%
- Median Survival ([4]; 3.0 mg/kg i.p.): 51.0 days

Structure (SMILES): CCCCCC(=O)OCC(=O)[C@]1(O)Cc2c(O)c3c(c(O)c2[C@@H](O[C@H]2C[C@H](NC(=O)C(F)(F)F)[C@H](O)[C@H](C)O2)C1)C(=O)c1c(OC)cccc1C3=O [Caproate, N-Trifluoroacetyladriamycin-14-caproate]
- pIC50 (CCRF-CEM cell line; CCRF-CEM cells, Table I): 6.48
- toxicity (mice): no toxicity was observed
- Survivors 60da (murine P 388 leukemia): 1/5
- MILS (Median Increase in Life Span Compared with Untreated Mice) (murine P 388 leukemia): 271%
- Survivors 30da (murine P 388 leukemia): 5/5

Structure (SMILES): COc1cccc2c1C(=O)c1c(O)c3c(c(O)c1C2=O)C[C@@](O)(C(=O)COC(=O)C(C)(C)C)C[C@@H]3O[C@H]1C[C@H](NC(=O)C(F)(F)F)[C@H](O)[C@H](C)O1 [Pivalate, N-Trifluoroacetyladriamycin-14-pivalate]
- pIC50 (CCRF-CEM cell line; CCRF-CEM cells, Table I): 6.23

Structure (SMILES): CCCCC(=O)OCC(=O)[C@]1(O)Cc2c(O)c3c(c(O)c2[C@@H](O[C@H]2C[C@H](NC(=O)C(F)(F)F)[C@H](O)[C@H](C)O2)C1)C(=O)c1c(OC)cccc1C3=O [N-Trifluoroacetyladriamycin-14-valerate]
- pIC50 (CCRF-CEM cell line; CCRF-CEM cells, Table I): 6.62
- MILS (murine L 1210 leukemia [1]; first test, 60.0 mg/kg i.p.): > 445%
- Survivors 30da (murine L 1210 leukemia [1]; first test, 60.0 mg/kg i.p.): 4/5
- Survivors 60da (murine L 1210 leukemia [1]; first test, 60.0 mg/kg i.p.): 4/5
- MILS (murine L 1210 leukemia [1]; first test, 70.0 mg/kg i.p.): > 445%
- Survivors 30da (murine L 1210 leukemia [1]; first test, 70.0 mg/kg i.p.): 4/5
- Survivors 60da (murine L 1210 leukemia [1]; first test, 70.0 mg/kg i.p.): 4/5
- MILS (murine L 1210 leukemia [1]; second test, 50.0 mg/kg i.p.): > 445%
- Survivors 30da (murine L 1210 leukemia [1]; second test, 50.0 mg/kg i.p.): 4/7
- Survivors 60da (murine L 1210 leukemia [1]; second test, 50.0 mg/kg i.p.): 4/7
- MILS (murine L 1210 leukemia [1]; second test, 60.0 mg/kg i.p.): > 445%
- Survivors 30da (murine L 1210 leukemia [1]; second test, 60.0 mg/kg i.p.): 3/6
- Survivors 60da (murine L 1210 leukemia [1]; second test, 60.0 mg/kg i.p.): 3/6
- MILS (murine L 1210 leukemia [1]; third test, 50.0 mg/kg i.p.): > 400%
- Survivors 30da (murine L 1210 leukemia [1]; third test, 50.0 mg/kg i.p.): 5/7
- Survivors 60da (murine L 1210 leukemia [1]; third test, 50.0 mg/kg i.p.): 5/7
- MILS (murine L 1210 leukemia [1]; third test, 60.0 mg/kg i.p.): > 400%
- Survivors 30da (murine L 1210 leukemia [1]; third test, 60.0 mg/kg i.p.): 6/7
- Survivors 60da (murine L 1210 leukemia [1]; third test, 60.0 mg/kg i.p.): 6/7
- Survivors 60da (murine P 388 leukemia): 3/5
- MILS (Median Increase in Life Span Compared with Untreated Mice) (murine P 388 leukemia): 429%
- Survivors 30da (murine P 388 leukemia): 4/5
- gross number of complete remissions compared with adriamycin [4, 6]: the gross number of complete remissions was greater
- median duration of complete remission compared with adriamycin [4, 6]: the median duration of complete remission was longer
- MILS ([4]; 50.0 mg/kg i.p.): 130%
- Median Survival ([4]; 50.0 mg/kg i.p.): 84.0 days
- MILS ([4]; 60.0 mg/kg i.p.): 122%
- Median Survival ([4]; 60.0 mg/kg i.p.): 81.0 days

Structure (SMILES): CCCCCCCCCC(=O)OCC(=O)[C@]1(O)Cc2c(O)c3c(c(O)c2[C@@H](O[C@H]2C[C@H](NC(=O)C(F)(F)F)[C@H](O)[C@H](C)O2)C1)C(=O)c1c(OC)cccc1C3=O [Caprate, N-Trifluoroacetyladriamycin-14-caprate]
- pIC50 (CCRF-CEM cell line; CCRF-CEM cells, Table I): 6.41

Structure (SMILES): COc1cccc2c1C(=O)c1c(O)c3c(c(O)c1C2=O)C[C@@](O)(C(C)=O)C[C@@H]3O[C@H]1C[C@H](N)[C@H](O)[C@H](C)O1 [Daunomycin, reference compound]
- pIC50 (CCRF-CEM cell line; CCRF-CEM): 7.46
- clinical effectiveness (malignant tumors): effective clinically against certain malignant tumors
- toxicities in chemotherapy (malignant tumors; in vivo): a variety of toxicities which limit the effectiveness of the compounds
- effectiveness in prolonging survival of mice bearing L 1210 leukemia (general statement) (murine L 1210 leukemia [3]): much less so
- MILS (Median Increase in Life Span Compared with Untreated Mice) (murine P 388 leukemia): 91%
- Survivors 30da (murine P 388 leukemia): 0/6

Structure (SMILES): CCCCCCCC(=O)OCC(=O)[C@]1(O)Cc2c(O)c3c(c(O)c2[C@@H](O[C@H]2C[C@H](NC(=O)C(F)(F)F)[C@H](O)[C@H](C)O2)C1)C(=O)c1c(OC)cccc1C3=O [Caprylate, N-Trifluoroacetyladriamycin-14-caprylate]
- pIC50 (CCRF-CEM cell line; CCRF-CEM cells, Table I): 6.44
- toxicity (mice): no toxicity was observed
- Survivors 60da (murine P 388 leukemia): 1/5
- MILS (Median Increase in Life Span Compared with Untreated Mice) (murine P 388 leukemia): 243%
- Survivors 30da (murine P 388 leukemia): 5/5

Structure (SMILES): COc1cccc2c1C(=O)c1c(O)c3c(c(O)c1C2=O)C[C@@](O)(C(=O)COC(C)=O)C[C@@H]3O[C@H]1C[C@H](NC(=O)C(F)(F)F)[C@H](O)[C@H](C)O1 [Acetate, N-trifluoroacetyladriamycin-14-acetate]
- pIC50 (CCRF-CEM cell line; CCRF-CEM cells, Table I): 6.70
- Survivors 60da (murine P 388 leukemia): 0/5
- MILS (Median Increase in Life Span Compared with Untreated Mice) (murine P 388 leukemia): 173%
- Survivors 30da (murine P 388 leukemia): 2/5

Source: patent US4035566A, “N-trifluoroacetyladriamycin-14-alkanoates and therapeutic compositions containing same” (Sidney Farber Cancer Institute, Inc., priority 1975, dated 1977)
